Test results taken from ChEMBL document CHEMBL4673312, “Optimization of piperidine constructed peptidyl derivatives as proteasome inhibitors” (Bioorg Med Chem, 2021).

Assay: in vitro
Conditions: rat, plasma

SMILES | half-life at 2 µM
CC(C)(C)CNC(=O)C[C@H](NC(=O)[C@H](CC(=O)NCC(C)(C)C)NC(=O)N1CCC(C(=O)Nc2cccnc2)CC1)C(=O)NCc1ccccc1Cl | 1.2 h
CC(C)(C)CNC(=O)C[C@H](NC(=O)N1CCC(NC(=O)c2ccc(F)cc2)CC1)C(=O)N[C@@H](CCc1ccccc1)C(=O)NCc1ccccc1Cl | 1.53 h
